# Experimental data: patent US6391576B1, “Method for isolating a microbe” (Japan Bioindustry Association, priority 1999, dated 2002)
# Tested on: microorganisms in the activated sludge
# Assay: Colony formation on NUTRIENT BROTH agar plates inoculated with activated sludge cell dispersion
# Format: cell-based
# Details: 30° C.; for Growth of the microorganisms in the activated sludge (in words): 0.1 w/w % on plate
# Protocol: Ten ml of activated sludge obtained from a food manufacturer's factory were filtered through gauze. The filtered activated sludge was stirred, subjected to ultra-sonics, added with a saline solution, and further stirred to allow cells to disperse well in the filtered activated sludge. The cell dispersion was diluted with a saline solution to 3×10^4 cells/ml as determined by staining with 6-carboxy-fluorescein diacetate (J. Porter et al. J. Appl. Bacteriol., Vol. 79, 399-408 (1995)).
# The medium used was NUTRIENT BROTH (DIFICO), an 1:3 mixture of Bact Beef® and Bact Peptone®) added with 0.2% glucose and 2% agar. The medium was heat-sterilized and allowed to coagulate in plates. The plates were added with 0.1 w/w % of the compound shown in Table 3 and inoculated with 0.1 ml of the cell dispersion solution, and incubated at 30° C. After 2 or 10 days incubation, the number of colonies formed on the plates was counted.
# [1] = 0.1 w/w % cyclodextrin compound on plate, 0.1 ml cell dispersion
# [2] = 0.1 w/w % polysaccharide on plate
Compound,Colony/plate formed after incubation of 2 days [1] [Colony/plate],Colony/plate formed after incubation of 10 days [1],Growth of the microorganisms in the activated sludge (in words),Colony/plate formed after incubation of 2 days [2] [Colony/plate],Colony/plate formed after incubation of 10 days [2] [Colony/plate]
2-Hydroxypropyl-β-cyclodextrin,270,710 Colony/plate,promoted the growth,,
"COC[C@H]1O[C@@H]2O[C@H]3[C@H](OC)[C@@H](OC)[C@@H](O[C@H]4[C@H](OC)[C@@H](OC)[C@@H](O[C@H]5[C@H](OC)[C@@H](OC)[C@@H](O[C@H]6[C@H](OC)[C@@H](OC)[C@@H](O[C@H]7[C@H](OC)[C@@H](OC)[C@@H](O[C@H]8[C@H](OC)[C@@H](OC)[C@@H](O[C@H]1[C@H](OC)[C@H]2OC)O[C@@H]8COC)O[C@@H]7COC)O[C@@H]6COC)O[C@@H]5COC)O[C@@H]4COC)O[C@@H]3COC [2,3,6-Tri-O-methyl-β-cyclodextrin]",220,650 Colony/plate,promoted the growth,,
"COC[C@H]1O[C@@H]2O[C@H]3[C@H](O)[C@@H](OC)[C@@H](O[C@H]4[C@H](O)[C@@H](OC)[C@@H](O[C@H]5[C@H](O)[C@@H](OC)[C@@H](O[C@H]6[C@H](O)[C@@H](OC)[C@@H](O[C@H]7[C@H](O)[C@@H](OC)[C@@H](O[C@H]8[C@H](O)[C@@H](OC)[C@@H](O[C@H]1[C@H](O)[C@H]2OC)O[C@@H]8COC)O[C@@H]7COC)O[C@@H]6COC)O[C@@H]5COC)O[C@@H]4COC)O[C@@H]3COC [2,6-Di-O-methyl-β-cyclodextrin]",520,"1,060 Colony/plate",promoted the growth,,
OC[C@H]1O[C@@H]2O[C@H]3[C@H](O)[C@@H](O)[C@@H](O[C@H]4[C@H](O)[C@@H](O)[C@@H](O[C@H]5[C@H](O)[C@@H](O)[C@@H](O[C@H]6[C@H](O)[C@@H](O)[C@@H](O[C@H]7[C@H](O)[C@@H](O)[C@@H](O[C@H]1[C@H](O)[C@H]2O)O[C@@H]7CO)O[C@@H]6CO)O[C@@H]5CO)O[C@@H]4CO)O[C@@H]3CO [α-Cyclodextrin],120,320 Colony/plate,,,
OC[C@H]1O[C@@H]2O[C@H]3[C@H](O)[C@@H](O)[C@@H](O[C@H]4[C@H](O)[C@@H](O)[C@@H](O[C@H]5[C@H](O)[C@@H](O)[C@@H](O[C@H]6[C@H](O)[C@@H](O)[C@@H](O[C@H]7[C@H](O)[C@@H](O)[C@@H](O[C@H]8[C@H](O)[C@@H](O)[C@@H](O[C@H]1[C@H](O)[C@H]2O)O[C@@H]8CO)O[C@@H]7CO)O[C@@H]6CO)O[C@@H]5CO)O[C@@H]4CO)O[C@@H]3CO [β-Cyclodextrin],105,350 Colony/plate,,,
OC[C@H]1O[C@@H]2O[C@H]3[C@H](O)[C@@H](O)[C@@H](O[C@H]4[C@H](O)[C@@H](O)[C@@H](O[C@H]5[C@H](O)[C@@H](O)[C@@H](O[C@H]6[C@H](O)[C@@H](O)[C@@H](O[C@H]7[C@H](O)[C@@H](O)[C@@H](O[C@H]8[C@H](O)[C@@H](O)[C@@H](O[C@H]9[C@H](O)[C@@H](O)[C@@H](O[C@H]1[C@H](O)[C@H]2O)O[C@@H]9CO)O[C@@H]8CO)O[C@@H]7CO)O[C@@H]6CO)O[C@@H]5CO)O[C@@H]4CO)O[C@@H]3CO [γ-Cyclodextrin],210,640 Colony/plate,promoted the growth,,
Cellulose,,,,244,685
Curdlan,,,,220,745
Dextran,,,,146,350
Glucomannan,,,,190,650
Glycogen,,,,210,830
Pullulan,,,,180,600
